In a melting point compilation (Tetko et al.; mined from patent text by program, amines drawn as free bases though some values may be those of a salt) one finds melting point data, which are given here for 92 compounds.

As to `Cc1nc(N)sc1C(=O)OC(C)(C)C`, the melting point fell in the range of 167 to 170 °C.

`CCc1cc(CCN2C(=O)c3ccccc3C2=O)c(=O)[nH]c1C` registered a melting point of 232 to 233 °C.

For the compound `CCOC(=O)c1sc(SC)c2c1CCC(Br)C2=O` (configuration not stated), the melting point fell in the range of 147 to 148 °C.

In the case of `Cc1c[nH]c2cc(-c3nn(C(C)c4oc5ccccc5c(=O)c4-c4cccc(F)c4)c4ncnc(N)c34)ccc12` (configuration not stated), the melting point was 262 to 265 °C.

`CCOC(=O)C1=C(/C=C/N(C)C)C(CC)(C(=O)N(CC)CC)OC1=O` (configuration not stated) yielded a melting point of 105 °C.

In turn, `CC(=O)c1cc(C(=O)c2ccccc2Cl)c(N)s1` came in with a melting point of 190 to 191 °C.

`CSCC(C)Nc1nccc(-c2ccnc(Nc3cccc(F)c3)c2)n1` (configuration not stated) had a melting point of 104 to 107 °C.

The compound `Cc1c(-c2ccncc2)sc(-c2ccncc2)c1C=O` came in with a melting point of 139 to 140 °C.

The compound `Nc1cccc(NC(=O)NCCCOc2cccc(CN3CCCCC3)c2)c1` showed a melting point of 116 to 118 °C.

With `CC(C)n1cc(-c2ccc(Oc3ccccc3)c(CO)c2)c2c(Cl)ncnc21`, the melting point fell in the range of 157 to 159 °C.

`CC1=NN=C(C=Cc2ccc(C#N)cc2)c2cc3c(cc2C1)OCO3` displayed a melting point of 198 to 202 °C.

With `CCCc1cc(=O)oc2cc(O)c3c(c12)OC(C)(C)C=C3`, the melting point lay in the range of 190 to 192 °C.

`CC(C=CC=C(C)CCCC(C)CCCC(C)C)=CC(=O)O` (configuration not stated) registered a melting point of 84.5 to 85.5 °C.

`CCNC(=O)C1CC(n2cnc3c(NC(CC)Cc4ccc(Cl)s4)ccnc32)C(O)C1O` (configuration not stated) came in with a melting point of 77 to 85 °C.

`O=C(OCc1ccccc1)C(=C1NCCCS1)[N+](=O)[O-]` gave a melting point of 78 to 79 °C.

In the case of `Cc1ccnc(C(=O)c2[nH]c3cc(Cl)ccc3c2N)c1`, the melting point was in the range of 195 to 196 °C.

In turn, `COc1ccc(C(O)C(=O)c2ccccc2)cc1F` (configuration not stated) showed a melting point of 127 to 130 °C.

In turn, `CCOCc1nc2nc(O)cnc2c(=O)[nH]1` gave a melting point of 255 to 256 °C.

In the case of `O=C(Nc1ccccc1Oc1ccc(Cl)cc1Cl)C1CCN(C(=O)c2ccccc2)CC1`, the melting point lay within 176 to 177 °C.

In turn, `CCCc1[nH]c(C(=O)OCC)c(CC)c1C` gave a melting point of 58 to 59.5 °C.

For `C[Si](O)(Cn1cncn1)c1ccc(-c2ccccc2)cc1` (configuration not stated), the melting point lay in the range of 97 to 99 °C.

`NS(=O)(=O)c1c(-c2ccccc2)sc2ccccc12` returned a melting point of 185 to 186 °C.

Regarding `COC(c1ccccc1)C(C)([N+](=O)[O-])[N+](=O)[O-]` (configuration not stated), the melting point lay in the range of 53 to 55 °C.

`BrCc1c(Br)cccc1Br`: the melting point was 77 to 78 °C.

For the compound `CCCCn1c(=O)c(C(=O)OCC)c(N2CCN(C(=O)c3cccs3)CC2)c2cccnc21`, the melting point lay within 90 to 96 °C.

Turning to `CC(C)(C)OC(=O)N=C(NCCCCNC(=O)[C@H](Cc1ccccc1)NC(=O)CCCC(=O)O)NC(=O)OC(C)(C)C`, the melting point is 86 °C.

In turn, `C#Cc1ccc(C(O)(Cn2cncn2)C(C)(C)C)cc1` (configuration not stated) showed a melting point of 101 °C.

`N#CCN1CCN(c2n[nH]c3ccccc23)CC1` registered a melting point of 121 to 123 °C.

`Oc1ccc(OCC(O)CNC2CCN(c3ccc(Cl)cn3)CC2)cc1` (configuration not stated) came in with a melting point of 148 to 150 °C.

The compound `CN1C(=O)C(NC(=O)NC(C)(C)C)N=C(c2ccccc2)c2ccccc21` (configuration not stated) showed a melting point of 281 to 282 °C.

`OC(CCc1cccc(Br)c1)c1cnc2sc3c(n12)CCCCC3` (configuration not stated): the melting point was 137 to 141 °C.

The compound `Cc1nc2c3c(ccc2n1C)C(O)C(OC(=O)C(C)(C)C)C(c1ccccc1)O3` (configuration not stated) returned a melting point of 148 °C.

`COC1(c2ccccc2)CCc2c(C(=O)O)cc3c(nc(C)n3C)c2O1` (configuration not stated) yielded a melting point of 288 to 289 °C.

The compound `C#Cc1cc(C)nc(C(=O)Nc2ccn(C)n2)c1` showed a melting point of 226 °C.

For `CCc1cc2nccc(-c3cccnc3)n2n1`, the melting point lay in the range of 103 to 104 °C.

As to `COc1ccc([C@H]2NC(SC)=N[C@H]2c2ccc(OC)cc2)cc1`, the melting point is 132 to 134 °C.

For `OC1CSC(Oc2cccnc2)C(O)C1O` (configuration not stated), the melting point is 216 °C.

`CC(=O)Nc1ccc(NCCO)c([N+](=O)[O-])c1` displayed a melting point of 186 °C.

The compound `COc1ccc(N2CCOC(c3ccc(C(F)(F)F)cc3)C2)c(-c2ccc(N(C)C)cc2)n1` (configuration not stated) registered a melting point of 160 to 161 °C.

The compound `CCCCCOc1ccc(-c2cnc(C#N)nc2)cc1` yielded a melting point of 100 °C.

In turn, `CCC(CC)C(=O)OCOC(=O)C1=C(S[C@H]2CC[S@@](=O)C2)S[C@@H]2[C@@H]([C@@H](C)O)C(=O)N12` showed a melting point of 105 °C.

On to `CCS(=O)(=O)c1cccnc1S(N)(=O)=O`, for which the melting point was 211 to 212 °C.

On to `CN1C(=O)C(C)(Cc2ccccc2)N(C)C(=O)C1=Cc1cccnc1C#N` (configuration not stated), for which the melting point was 163 °C.

Regarding `CCOC(=O)c1cnn(-c2cc(C)cc(C)c2)c1C#N`, the melting point fell in the range of 83.5 to 84.5 °C.

`O=C(NCCOc1ccc(CC(Oc2ccc(-c3ccccn3)cc2)C(=O)O)cc1)c1ccc(-c2ccccn2)cc1` (configuration not stated): the melting point lay within 98 to 101 °C.

The compound `COc1ccc(C2Cc3c(cccc3C(F)(F)F)NC(=O)C2=O)cc1` (configuration not stated) displayed a melting point of 221 to 223 °C.

Regarding `CCC(=O)Nc1ccc(OCc2nc3ccccc3s2)cc1`, the melting point was 182 °C.

The compound `CCCSc1ncc(C(=O)N[C@@H](Cc2ccc(O)cc2)C(=O)OC)n1Cc1ccccc1Cl` had a melting point of 180 to 182 °C.

Consider `Cc1cccc(Cn2nnc(C(N)=O)c2N)c1`, for which the melting point was 200 to 202 °C.

`CCOC(=O)CCc1csc2c(C(=O)OCC)c(=O)c3cc(F)c(Cl)cc3n12`: the melting point is 200 °C.

Take `Nc1nc2ccccc2c(=O)[nH]1`: the melting point is > 300 °C.

As to `Clc1nc(N2CCOCC2)nc(-n2cnc3ccccc32)n1`, the melting point was 201 to 203 °C.

The compound `CCOC(=O)c1cn(C2COC2)c2c(F)c(F)c(F)c(NCc3ccccc3)c2c1=O` registered a melting point of 127 to 128 °C.

`CCOP(OCC)c1ccccc1P(c1cc(C(C)(C)C)c(OC)c(C(C)(C)C)c1)c1cc(C(C)(C)C)c(OC)c(C(C)(C)C)c1` showed a melting point of 104 to 105 °C.

`Cn1cc(-c2cc3nccnc3[nH]2)c2cc(OC3(CO)CCC3)ccc21`: the melting point was in the range of 267 to 271 °C.

For the compound `CCn1c(=O)cc(C2CCCCC2)c2cccnc21`, the melting point was in the range of 88 to 89 °C.

As for `Cc1nc2ccnn2c(Cl)c1CCCl`, the melting point lay within 87 to 88 °C.

`CCOC(=O)c1cnc(N2CCn3ccnc3C2)nc1NCc1ccc(OC)c(Cl)c1` had a melting point of 179 to 182 °C.

For the compound `N=C(N)Nc1ncc(CO)s1`, the melting point fell in the range of 168 to 170 °C.

Regarding `COC(=O)Nc1nccc(Oc2ccc3c(C(=O)Nc4ccc(F)c(C(F)(F)F)c4)cccc3c2)n1`, the melting point was 204 to 205 °C.

With `COc1ccc(-n2cc(C#N)c(=O)[nH]c2=O)c(C)c1`, the melting point lay in the range of 276 to 278 °C.

`CN(C)C(c1ccccc1)C1CCCCC1(O)Cc1cccc(F)c1` (configuration not stated): the melting point was 146 to 147 °C.

As for `CC(C)c1nc2cc(NC(=O)OC(C)(C)C)ccn2n1`, the melting point was 215 to 218 °C.

`Cc1cc(-c2cccc(Cl)c2)nnc1Cl` yielded a melting point of 138 to 140 °C.

Consider `CCOC(=O)C1=C(N)NC2=C(C(=O)CCC2)C1c1ccccc1C#N` (configuration not stated), for which the melting point was 165 °C.

The compound `Cc1cccc(-c2c(C3CCN(C)CC3)[nH]c(=O)c3ccccc23)c1` displayed a melting point of 214 to 216 °C.

Take `CC(C)(C#N)c1ccc(C#N)cc1`: the melting point lay within 122 to 123 °C.

With `CC(C)C(C)C=CC(C)C1CCC2C1(C)CCC1C23C=CC2(CC(O)CCC12C)OO3` (configuration not stated), the melting point lay in the range of 165 to 169 °C.

For the compound `Cc1ccc(C(OS(=O)(=O)c2c(C)cc(C)c(S(=O)(=O)OC(c3ccc(C)cc3)(C(F)(F)F)C(F)(F)F)c2C)(C(F)(F)F)C(F)(F)F)cc1`, the melting point was 178 °C.

The compound `Cn1cncc1C(O)(c1ccc(C=O)cc1)c1ccc2c(c1)c(-c1cccc(Cl)c1)nc1nnnn12` (configuration not stated) came in with a melting point of 170 °C.

The compound `Nc1c(F)cncc1F` displayed a melting point of 99 to 101 °C.

For `Cc1cc(C=CC(=O)COc2ccc(CC(=O)O)cc2)cc(C)c1O`, the melting point is 151 to 154 °C.

`CCCCCCCN(CCCCCSc1nc(-c2ccc(O)cc2)c(-c2ccc(O)cc2)[nH]1)C(=O)Nc1ccc(F)cc1F` yielded a melting point of 110 to 112 °C.

`Clc1ccc(-c2nc(I)c[nH]2)cc1Cl` had a melting point of 206 to 207 °C.

As to `CCCc1cc(NCc2ccc(Cl)cc2)nc(SCC#N)n1`, the melting point lay within 68 to 70 °C.

Regarding `O=C(Nc1cccnc1Cl)N1CCc2ccccc2CC1`, the melting point was 120 to 122 °C.

In turn, `Oc1cc2c(cc1F)[C@H](O)[C@H](N1CCC(O)(c3ccc(F)cc3)CC1)CO2` (relative stereo) gave a melting point of 160 to 161 °C.

`O=C(Nc1cccc(-c2ccccc2)c1)Nc1cccc2[nH]ccc12`: the melting point was in the range of 213 to 215 °C.

`O=Cc1cc2n(n1)CCOC2`: the melting point came out at 91 °C.

`COC(=O)c1ccc([N+](=O)[O-])s1` showed a melting point of 74 °C.

`CCOC(=O)c1cn(C)c2nc3cc(N4CCNC(c5ccc(N)cc5)C4)c(F)cc3cc2c1=O` (racemic) registered a melting point of 180 to 182 °C.

With `COc1nc2cc(Br)c(Br)c(NS(C)(=O)=O)c2nc1OC`, the melting point is 186 to 187 °C.

For the compound `CCCCOc1ccc(-c2ccc3c(c2)C=C(C(=O)OC)CCS3(=O)=O)cc1`, the melting point fell in the range of 123 to 125 °C.

In turn, `CC(Oc1ccc(CNc2ccc(Cl)cc2)cc1)C(=O)O` (configuration not stated) came in with a melting point of 148 to 149 °C.

Regarding `CSc1ccc(C2OC(=O)NC2O)cc1` (configuration not stated), the melting point lay in the range of 130 to 131 °C.

As for `COC1(OC)C2(Cl)C(Cl)=C(Cl)C1(Cl)C(O)C2O` (configuration not stated), the melting point was in the range of 160 to 162 °C.

`Cc1cc(-c2ccc(OC3SCC(O)C(O)C3O)c(F)n2)ccn1` (configuration not stated) showed a melting point of 159 to 162 °C.

For the compound `Nc1nc2c(s1)CCN(CC=Cc1ccc(F)cc1)CC2`, the melting point was in the range of 142 to 146 °C.

Take `O=c1oc2c(c(O)c1C(C1CC1)C1CC1)CCCCCC2Cc1ccccc1` (configuration not stated): the melting point is 94 to 97 °C.

`Clc1ccc2oc(Cl)nc2c1`: the melting point lay within 46 to 48 °C.

As to `O=Cc1ccccc1-c1ccc(CBr)cc1`, the melting point was 63 to 66 °C.

Regarding `COc1cc2c(cc1O)CCN(Cc1cccc(O)c1)C2`, the melting point is 177 to 178 °C.

For orientation: melting point means the temperature of the solid-liquid transition.
